Values quoted from earlier work as cited in patent publication US20050084507A1, “Liquid preparations and surfactant/solvent systems” (priority 1999, published 2005).
Values after ≈ are worked out from the molar mass of the structure shown.

CCOC1Oc2ccc(OS(C)(=O)=O)cc2C1(C)C (stereo not shown) [ethofumesate]
solubility in water: 50 µg/mL (≈ 175 µM)
